From ChEMBL document CHEMBL1201862, “PubChem BioAssay data set” (2004)
Counter-ions that a name gives are not always drawn.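 Dose response: 5 concentrations. Exposure: 48 h. Format: 96-well plates. Endpoint: linear interpolation; highest concentration if not reached. GI50 is the concentration that inhibits growth by half.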 Activity calls are given as the source filed them. No stated cut-off is given here; in the data, active = GI50 up to about 1.1 µM and inactive = higher.

How the values were obtained:
Experiment in all cases: growth of human tumour cells (NCI), 48 h
HCT-116 = tested on: HCT-116
EKVX = tested on: EKVX
HCT-15 = tested on: HCT-15
COLO 205 = tested on: COLO 205
UACC-62 = tested on: UACC-62
DU-145 = tested on: DU-145
CCRF-CEM = tested on: CCRF-CEM
OVCAR-3 = tested on: OVCAR-3
HCC 2998 = tested on: HCC 2998
LOX IMVI = tested on: LOX IMVI
HOP-92 = tested on: HOP-92
T47D = tested on: T47D
ACHN = tested on: ACHN
HOP-62 = tested on: HOP-62
RPMI-8226 = tested on: RPMI-8226
CAKI-1 = tested on: CAKI-1
NCI-H460 = tested on: NCI-H460
M14 = tested on: M14
BT-549 = tested on: BT-549
SNB-75 = tested on: SNB-75

Row | SMILES | GI50 (HCT-116) | GI50 (EKVX) | GI50 (HCT-15) [µM] | GI50 (COLO 205) | GI50 (UACC-62) | GI50 (DU-145) | GI50 (CCRF-CEM) | GI50 (OVCAR-3) | GI50 (HCC 2998) | GI50 (LOX IMVI) | GI50 (HOP-92) | GI50 (T47D) | GI50 (ACHN) | GI50 (HOP-62) | GI50 (RPMI-8226) | GI50 (CAKI-1) | GI50 (NCI-H460) | GI50 (M14) | GI50 (BT-549) | GI50 (SNB-75)
1 | C/C(=C\[Si](C)(C)c1ccco1)C(C)(O)[C@H](C)O (stereo not given in full) | 41.6 µM (inactive) | 42.6 µM (inactive) | 31.6 | 36.5 µM (inactive) | > 100 µM (inactive) | 38.4 µM (inactive) | 32.9 µM (inactive) | 54.5 µM (inactive) | 34.8 µM (inactive) | > 100 µM (inactive) | 46.1 µM (inactive) | 16.4 µM (inactive) | 95.3 µM (inactive) | > 100 µM (inactive) | 30.8 µM (inactive) | > 100 µM (inactive) | 47.5 µM (inactive) | > 100 µM (inactive) | – | –
2 | CC(NC(=O)C(N)CC(=O)O)NC(=O)N1CCOCC1 (stereo not given) | > 100 µM (inactive) | > 100 µM (inactive) | > 100 | > 100 µM (inactive) | 19.1 µM (inactive) | > 100 µM (inactive) | > 100 µM (inactive) | > 100 µM (inactive) | – | > 100 µM (inactive) | – | – | > 100 µM (inactive) | > 100 µM (inactive) | > 100 µM (inactive) | > 100 µM (inactive) | > 100 µM (inactive) | > 100 µM (inactive) | > 100 µM (inactive) | > 100 µM (inactive)
3 | OC1(c2ccccc2)CCCCCCCCC(O)(c2ccccc2)CCCCCCCC1 (stereo not given) | > 100 µM (inactive) | > 100 µM (inactive) | > 100 | > 100 µM (inactive) | > 100 µM (inactive) | > 100 µM (inactive) | – | > 100 µM (inactive) | > 100 µM (inactive) | > 100 µM (inactive) | > 100 µM (inactive) | > 100 µM (inactive) | > 100 µM (inactive) | > 100 µM (inactive) | – | > 100 µM (inactive) | > 100 µM (inactive) | > 100 µM (inactive) | – | > 100 µM (inactive)
4 | O=c1cc(-c2ccccc2F)[nH]c2ccc(N3CCCC3)cc12 | – | 0.00138 µM (active) | 0.033 | 0.0557 µM (active) | 0.0185 µM (active) | 0.0535 µM (active) | 0.0461 µM (active) | – | 0.00179 µM (active) | 0.0398 µM (active) | – | > 10 µM (inactive) | < 0.001 µM (active) | 0.34 µM (active) | 0.0468 µM (active) | < 0.001 µM (active) | 0.0417 µM (active) | 0.0301 µM (active) | – | 63.2 µM (inactive)
5 | C/C(=N\Nc1ccccc1Br)c1cccc(/C(C)=N/Nc2ccccc2Br)n1 | > 100 µM (inactive) | > 100 µM (inactive) | > 100 | 68.2 µM (inactive) | – | > 100 µM (inactive) | > 100 µM (inactive) | 68.1 µM (inactive) | > 100 µM (inactive) | > 100 µM (inactive) | 81.5 µM (inactive) | – | > 100 µM (inactive) | 49.8 µM (inactive) | > 100 µM (inactive) | 49 µM (inactive) | > 100 µM (inactive) | > 100 µM (inactive) | > 100 µM (inactive) | 13 µM (inactive)
6 | CCOC(CN(C)C(=O)Nc1ccc(Cl)c(Cl)c1)OCC | > 10 µM (inactive) | > 10 µM (inactive) | > 10 | > 10 µM (inactive) | > 10 µM (inactive) | > 10 µM (inactive) | > 10 µM (inactive) | > 10 µM (inactive) | > 10 µM (inactive) | > 10 µM (inactive) | > 10 µM (inactive) | > 10 µM (inactive) | > 10 µM (inactive) | > 10 µM (inactive) | > 10 µM (inactive) | > 10 µM (inactive) | > 10 µM (inactive) | > 10 µM (inactive) | – | > 10 µM (inactive)
7 | CC1OCC2OC(C)OC(C3C4=C(CC(C)(C)CC4=O)OC4=C3C(=O)CC(C)(C)C4)C2O1 (stereo not given) | > 100 µM (inactive) | > 100 µM (inactive) | > 100 | > 100 µM (inactive) | > 100 µM (inactive) | > 100 µM (inactive) | > 100 µM (inactive) | > 100 µM (inactive) | > 100 µM (inactive) | > 100 µM (inactive) | > 100 µM (inactive) | > 100 µM (inactive) | > 100 µM (inactive) | > 100 µM (inactive) | > 100 µM (inactive) | > 100 µM (inactive) | > 100 µM (inactive) | > 100 µM (inactive) | – | > 100 µM (inactive)
8 | CN1CCOC1c1ccccc1O (stereo not given) | > 100 µM (inactive) | > 100 µM (inactive) | > 100 | > 100 µM (inactive) | > 100 µM (inactive) | – | > 100 µM (inactive) | > 100 µM (inactive) | – | > 100 µM (inactive) | > 100 µM (inactive) | > 100 µM (inactive) | > 100 µM (inactive) | > 100 µM (inactive) | > 100 µM (inactive) | > 100 µM (inactive) | > 100 µM (inactive) | > 100 µM (inactive) | > 100 µM (inactive) | 85.3 µM (inactive)
9 | CCOC(=O)C(NC(C)=O)(Nc1ccc(S(N)(=O)=O)cc1)C(F)(F)F (stereo not given) | > 100 µM (inactive) | > 100 µM (inactive) | > 100 | > 100 µM (inactive) | – | > 100 µM (inactive) | > 100 µM (inactive) | > 100 µM (inactive) | > 100 µM (inactive) | > 100 µM (inactive) | > 100 µM (inactive) | > 100 µM (inactive) | > 100 µM (inactive) | > 100 µM (inactive) | > 100 µM (inactive) | > 100 µM (inactive) | > 100 µM (inactive) | > 100 µM (inactive) | – | > 100 µM (inactive)
10 | CCCCCCCCCCCCCCCCCc1nc(Cl)nc(Cl)c1Cl | > 100 µM (inactive) | – | > 100 | > 100 µM (inactive) | > 100 µM (inactive) | > 100 µM (inactive) | 34.8 µM (inactive) | > 100 µM (inactive) | > 100 µM (inactive) | > 100 µM (inactive) | > 100 µM (inactive) | > 100 µM (inactive) | > 100 µM (inactive) | > 100 µM (inactive) | 24.4 µM (inactive) | > 100 µM (inactive) | > 100 µM (inactive) | > 100 µM (inactive) | – | > 100 µM (inactive)
11 | COC(=O)CCC1(CCC(=O)OC)CCCCCCC(CCC(=O)OC)(CCC(=O)OC)C(=O)C1=O | > 100 µM (inactive) | > 100 µM (inactive) | > 100 | 54 µM (inactive) | > 100 µM (inactive) | > 100 µM (inactive) | – | 55.3 µM (inactive) | 27.9 µM (inactive) | > 100 µM (inactive) | 54.6 µM (inactive) | 20.5 µM (inactive) | > 100 µM (inactive) | > 100 µM (inactive) | < 0.01 µM (active) | > 100 µM (inactive) | 93.8 µM (inactive) | 74.1 µM (inactive) | – | 49.1 µM (inactive)
12 | CC(CN1c2ccccc2Sc2ccccc21)N(C)C (stereo not given) [PROMETHAZINE HYDROCHLORIDE] | 15.5 µM (inactive) | 22.6 µM (inactive) | 17.5 | 14.1 µM (inactive) | 19 µM (inactive) | 19.4 µM (inactive) | 20.3 µM (inactive) | 16.5 µM (inactive) | 20.1 µM (inactive) | 18.9 µM (inactive) | 17.1 µM (inactive) | 21.5 µM (inactive) | 17 µM (inactive) | 15.2 µM (inactive) | – | 18.5 µM (inactive) | 17.9 µM (inactive) | 17.3 µM (inactive) | – | 3.78 µM (inactive)
13 | C=C1c2nc3ccccc3n2C=C(c2ccccc2)N1c1ccccc1 | 13.5 µM (inactive) | > 100 µM (inactive) | 13.6 | 52.5 µM (inactive) | 43.1 µM (inactive) | > 100 µM (inactive) | 53.3 µM (inactive) | > 100 µM (inactive) | 12.5 µM (inactive) | 42.2 µM (inactive) | 50.4 µM (inactive) | – | 49.4 µM (inactive) | – | 17.3 µM (inactive) | 81.7 µM (inactive) | 27.5 µM (inactive) | 67.9 µM (inactive) | 24.5 µM (inactive) | > 100 µM (inactive)
14 | O=S(=O)(Oc1ccc2ccccc2c1-c1c(OS(=O)(=O)C(F)(F)F)ccc2ccccc12)C(F)(F)F | 9.64 µM (inactive) | 66.4 µM (inactive) | 32.4 | > 100 µM (inactive) | > 100 µM (inactive) | – | 29.3 µM (inactive) | 41.8 µM (inactive) | 31 µM (inactive) | – | 12.5 µM (inactive) | – | 2.75 µM (inactive) | > 100 µM (inactive) | 27.5 µM (inactive) | > 100 µM (inactive) | 20 µM (inactive) | 91.8 µM (inactive) | > 100 µM (inactive) | > 100 µM (inactive)
15 | CCCN(CCCCC(NC(C)=O)C(=O)NCc1ccccc1)C(=O)N(C)N=O (stereo not given) | > 100 µM (inactive) | > 100 µM (inactive) | > 100 | > 100 µM (inactive) | > 100 µM (inactive) | – | > 100 µM (inactive) | > 100 µM (inactive) | > 100 µM (inactive) | > 100 µM (inactive) | > 100 µM (inactive) | – | > 100 µM (inactive) | > 100 µM (inactive) | > 100 µM (inactive) | > 100 µM (inactive) | > 100 µM (inactive) | > 100 µM (inactive) | – | 38.1 µM (inactive)
16 | COCCOCN(C(=O)C1=CCC2(CC1)OCCO2)c1ccccc1I | > 50 µM (inactive) | 29.2 µM (inactive) | > 50 | > 50 µM (inactive) | > 50 µM (inactive) | > 50 µM (inactive) | > 50 µM (inactive) | > 50 µM (inactive) | > 50 µM (inactive) | > 50 µM (inactive) | > 50 µM (inactive) | > 50 µM (inactive) | > 50 µM (inactive) | > 50 µM (inactive) | > 50 µM (inactive) | > 50 µM (inactive) | > 50 µM (inactive) | > 50 µM (inactive) | – | > 50 µM (inactive)
